Results published in publication PMC11795093, “Investigation of the threonine metabolism of Echinococcus multilocularis: The threonine dehydrogenase as a potential drug target in alveolar echinococcosis” (International Journal for Parasitology: Drugs and Drug …, 2025).

What was measured:
recMmTDH [1] = biological target: T1, recMmTDH (Mus musculus, UniProt Q8K3F7); experiment: NADH formation, absorbance at […] nm, relative to DMSO control; type: biochemical; settings: 20 μM compound; 2 mM L-Thr, 3 mM NAD+; pH 8.4; 37 °C
T1 construct: gene Tdh; predicted mitochondrial transfer peptide removed; E. coli BL21; synthetic gene, 991 bp insert

recEmTDH = biological target: T2, recEmTDH (Echinococcus multilocularis, UniProt A0A068Y017); experiment: as above; type: biochemical; settings: read-out: residual activity at 20 μM
T2 construct: gene EmuJ_000511900; E. coli BL21; 979 bp insert from metacestode vesicle cDNA
T2 sequence (A0A068Y017 31-362): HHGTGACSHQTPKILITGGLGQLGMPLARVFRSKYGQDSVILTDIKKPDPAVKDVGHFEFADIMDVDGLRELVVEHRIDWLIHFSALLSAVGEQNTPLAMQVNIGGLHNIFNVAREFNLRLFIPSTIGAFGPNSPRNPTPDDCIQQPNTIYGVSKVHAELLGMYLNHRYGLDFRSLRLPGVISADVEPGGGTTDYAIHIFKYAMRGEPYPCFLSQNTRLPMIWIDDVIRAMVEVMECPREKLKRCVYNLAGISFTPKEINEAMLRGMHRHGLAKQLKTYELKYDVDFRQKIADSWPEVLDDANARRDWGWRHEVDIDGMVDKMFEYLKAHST

recMmTDH [2] = biological target: T1, recMmTDH; experiment: NADH formation, absorbance at […] nm; type: biochemical; settings: 0-16 mM L-Thr, 10 mM NAD+; pH 8.4; 37 °C
purified protein [3] = substrate: NC(=O)c1ccc[n+]([C@@H]2O[C@H](COP(=O)(O)OP(=O)(O)OC[C@H]3O[C@@H](n4cnc5c(N)ncnc54)[C@H](O)[C@@H]3O)[C@@H](O)[C@H]2O)c1; experiment: purified protein; type: biochemical, Echinococcus multilocularis; settings: 16 mM L-Thr, 80 mM Tris-HCl pH 8.4, 37 °C, varied: cofactor
purified protein [4] = substrate: C[C@@H](O)[C@H](N)C(=O)O; experiment: purified protein; type: biochemical, Echinococcus multilocularis; settings: 2 mM NAD+, 80 mM Tris-HCl pH 8.4, 37 °C

T1 sequence (Q8K3F7 46-373): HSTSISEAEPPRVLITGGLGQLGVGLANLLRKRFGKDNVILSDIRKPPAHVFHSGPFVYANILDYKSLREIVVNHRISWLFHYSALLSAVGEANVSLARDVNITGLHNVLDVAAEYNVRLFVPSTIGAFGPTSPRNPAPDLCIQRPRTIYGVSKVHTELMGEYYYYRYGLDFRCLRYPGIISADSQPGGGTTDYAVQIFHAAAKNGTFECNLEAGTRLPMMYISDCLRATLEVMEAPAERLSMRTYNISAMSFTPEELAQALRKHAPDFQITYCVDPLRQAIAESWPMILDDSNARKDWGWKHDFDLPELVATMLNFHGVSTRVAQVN

Molecule: COc1ccc(NC(=O)c2ccc3c(=O)n(-c4cc(C(F)(F)F)ccc4Cl)c(=S)[nH]c3c2)cc1OC [QC2]
- residual activity at 20 μM (recMmTDH [1]): All tested compounds, except QC4, inhibited recMmTDH activity
- remaining activity at 20 µM (recEmTDH): 81.3 ± 1.8%

Molecule: CCN(CC)C(=S)SSC(=S)N(CC)CC [disulfiram]
- residual activity at 20 μM (recMmTDH [1]): All tested compounds, except QC4, inhibited recMmTDH activity
- remaining activity at 20 µM (recEmTDH): 41.2 ± 0.8%

Molecule: O=C(O)c1ccc2c(=O)n(-c3cccc(C(F)(F)F)c3)c(=S)[nH]c2c1 [QC7]
- residual activity at 20 μM (recMmTDH [1]): All tested compounds, except QC4, inhibited recMmTDH activity

Molecule: O=c1c(O)c(-c2cc(O)c(O)c(O)c2)oc2cc(O)cc(O)c12 [myricetin]
- residual activity at 20 μM (recMmTDH [1]): All tested compounds, except QC4, inhibited recMmTDH activity
- remaining activity at 20 µM (recEmTDH): 74.8 ± 1.7%

Molecule: O=C(NCCCN1CCCC1=O)c1ccc2c(=O)n(-c3cccc(C(F)(F)F)c3)c(=S)[nH]c2c1 [QC5]
- residual activity at 20 μM (recMmTDH [1]): All tested compounds, except QC4, inhibited recMmTDH activity

Molecule: O=c1c(O)c(-c2ccc(O)c(O)c2)oc2cc(O)cc(O)c12 [quercetin]
- residual activity at 20 μM (recMmTDH [1]): All tested compounds, except QC4, inhibited recMmTDH activity
- remaining activity at 20 µM (recEmTDH): 85.5 ± 2.8%

Molecule: C[C@@H](O)[C@H](N)C(=O)O [L-Thr]
- NADH formation, absorbance at 340 nm (recMmTDH [2]): we recombinantly expressed MmTDH (S5 File) and this protein was also enzymatically active

Molecule: O=C(NCc1ccccc1)c1ccc2c(=O)n(-c3cccc(C(F)(F)F)c3)c(=S)[nH]c2c1 [QC1]
- residual activity at 20 μM (recMmTDH [1]): All tested compounds, except QC4, inhibited recMmTDH activity

Molecule: C[n+]1cc2c3c(ccc2c2ccc4cc5c(cc4c21)OCO5)OCO3 [sanguinarine]
- residual activity at 20 μM (recMmTDH [1]): All tested compounds, except QC4, inhibited recMmTDH activity
- remaining activity at 20 µM (recEmTDH): 64 ± 4%

Molecule: CN(Cc1ccccc1)C(=O)c1ccc2c(=O)n(-c3cccc(C(F)(F)F)c3)c(=S)[nH]c2c1 [QC6]
- residual activity at 20 μM (recMmTDH [1]): All tested compounds, except QC4, inhibited recMmTDH activity

Molecule: COc1ccccc1CNC(=O)c1ccc2c(=O)n(-c3cccc(C(F)(F)F)c3)c(=S)[nH]c2c1 [QC3]
- residual activity at 20 μM (recMmTDH [1]): All tested compounds, except QC4, inhibited recMmTDH activity

B1: recEmTDH (Echinococcus multilocularis) (protein)
chain: T2 sequence (A0A068Y017 31-362)
notes: E. coli BL21; 979 bp insert from metacestode vesicle cDNA
- Km (purified protein [3]): 0.8 ± 0.01 mM
- Km (purified protein [4]): 8.8 ± 0.05 mM
